Reference: PMC5526999, “Mass Spectrometry Imaging proves differential absorption profiles of well-characterised permeability markers along the crypt-villus axis” (Scientific Reports, 2017)

Tests used:
[1] = LC-ESI MS/MS quantification of drug concentration in intestinal tissue homogenates after oral cassette administration; assay type: in vivo, rat
Description: Male rats (Han-Wistar, ~ 100 days old, body-weight ~ 300 g) were used in this study. […] All experiments were performed in accordance with relevant guidelines and regulations, the animal work was approved by the Local Animal Research Ethics Board of Gothenburg, Sweden. […] Four animals were dosed in this study, and non-dosed tissue was prepared from control rats in parallel. […] Therefore, in the present study we focussed on the concept of “vertical” absorption gradients along the crypt-villous axis, which has not been studied earlier. The intestine was removed under anaesthesia using isoflurane (Forene, Abbott, USA), to ensure full viability and oxygenation of the tissue until the moment of excision. Animals were sacrificed without regaining consciousness by aortal incision and an overdose of isoflurane. Immediately after excision, intestines were divided into 10 cm long segments and each segment was carefully washed with Krebs-Bicarbonate-Ringer buffer (KBR) from the stomach to the large intestine (additional information in Supplementary Data). The first 5–10 mm of each segment were cut, quickly weighed and collected in homogenization tubes for subsequent extraction and LCMS analysis of total drug concentration in the gut-wall. The next 8–9 cm of each segment were prepared for MALDI-MSI analysis. […] The CMC gels quickly on wet-ice/isopropanol and provides tissue support during the subsequent cryosectioning. All samples were stored at −20 °C until cryosectioning. […] The supernatants were transferred to fresh vials and centrifuged again under the same conditions. […] The samples were analysed by LC-MS/MS and quantified against a calibration standard curve. The LC-MS/MS analysis was performed using an electrospray ionization tandem quadrupole mass spectrometer (Quattro Premier, Waters, USA) in positive ionization mode. The mass spectrometer was integrated with an ultra-performance liquid chromatography (UPLC) system (Acquity, Waters) assisted with a column manager. Chromatography was performed on a column (Acquity UPLC HSS T3, 2.1 × 50 mm) at 40 °C. The flow rate was 1000 µL/min and the injection volume was 5 µL. The mobile phases consisted of A: water, 0.2% (v/v) formic acid and 2% (v/v) acetonitrile and B: acetonitrile, 0.2% (v/v) formic acid. […] Data was acquired using multiple reaction monitoring (MRM) and mass transitions determined by QuanOptimize (Waters). Instrument control and data processing was performed using MassLynx 4.1 software including QuanLynx (Waters).

[2] = parameters: method as in PMID 1673839, PMID 11259831, PMID 9523990; details: ref [1], [15] and [48]; cited from earlier work
[3] = MALDI-MSI of drug distribution in rat small intestine after oral cassette administration; assay type: in vivo; details: oral 10 µmol/kg
Description: Male rats (Han-Wistar, ~ 100 days old, body-weight ~ 300 g) were used in this study. […] All experiments were performed in accordance with relevant guidelines and regulations, the animal work was approved by the Local Animal Research Ethics Board of Gothenburg, Sweden. […] Four animals were dosed in this study, and non-dosed tissue was prepared from control rats in parallel. […] Therefore, in the present study we focussed on the concept of “vertical” absorption gradients along the crypt-villous axis, which has not been studied earlier. The intestine was removed under anaesthesia using isoflurane (Forene, Abbott, USA), to ensure full viability and oxygenation of the tissue until the moment of excision. Animals were sacrificed without regaining consciousness by aortal incision and an overdose of isoflurane. Immediately after excision, intestines were divided into 10 cm long segments and each segment was carefully washed with Krebs-Bicarbonate-Ringer buffer (KBR) from the stomach to the large intestine (additional information in Supplementary Data). The first 5–10 mm of each segment were cut, quickly weighed and collected in homogenization tubes for subsequent extraction and LCMS analysis of total drug concentration in the gut-wall. The next 8–9 cm of each segment were prepared for MALDI-MSI analysis. […] The CMC gels quickly on wet-ice/isopropanol and provides tissue support during the subsequent cryosectioning. All samples were stored at −20 °C until cryosectioning. The embedded samples were attached and positioned with OCT-compound (TissueTek) to the specimen holder of a microtome (Cryo-Star HM 560 M, Microm International, Germany) set to −20 °C. The samples were sectioned at 10 µm thickness. […] A control tissue section from the same intestinal region from non-dosed animal was placed on each slide to enable a direct comparison to be made. All slides were kept at −80 °C until MALDI-MSI analysis. Tissue sections were also stained using haematoxylin and eosin (H&E) following a standard histological protocol for fresh frozen tissues. […] Additional optimization was performed using a robotic matrix sprayer (TM-Sprayer, HTX Technologies, USA) in order to minimize delocalization and crystal size, while still maintaining adequate extraction of compound from the tissue. […] An optical image (9600 dpi) of the glass slide was acquired using a flatbed scanner (Epson perfection V500). The tissue sections were coated with DHB (35 mg/ml, 70% ACN, 0.2% TFA) using a robotic sprayer with a flow of rate 70 µl/min, stage speed of 1100 mm/min, track spacing of 2 mm (crisscross pattern), nitrogen pressure 6 psi, and spray nozzle temperature set to 95 °C for 8 passes. […] FlexImaging 4.0 (Bruker Daltonics) and msIQuant 2.0 was used for data analysis, normalization (to total ion count) and ion image extraction.

Caco-2 = test system: Caco-2; parameters: method as in PMID 1673839, PMID 11259831, PMID 9523990; details: ref [1], [15] and [48]; cited from earlier work
[4] = no reference given; cited from earlier work
[5] = oral 10 µmol/kg, 20 min post administration
[6] = 20 min, 30 cm along the intestine, line graph along crypt-villus axis

lower tissue concentration at 45 min compared to 20 min (LC-MS/MS) ([1]; male, Han-Wistar, rat, in vivo, po) | distance over which the gradient from villus tip towards crypt region runs [3, 6] [µm] | lower tissue concentration at 45 min compared to 20 min (LC-MS/MS) ([1]; oral 10 µmol/kg, 40 cm sample) | lower level at 45 min compared to 20 min (MSI) ([3]; 40 cm sample) | distance from the villus tips of significant reduction in abundance [3, 6] | Structure (SMILES) | distance from the pyloro-duodenal junction of highest concentration (LC-ESI MS/MS homogenates) ([1]; oral 1 µmol/kg, 20 min post administration) [cm] | intestinal sample with highest concentration [1, 5] [cm] | Ion Class [2] | intensity profile from villus tip to base (line graph) ([3]; 20 min, 30 cm along the intestine) | localisation across and within the villi (transverse profile) ([3]; 20 min, profile perpendicular to the villus axis) | Caco-2 Papp (Caco-2) | Tmax in the rat [4] [min]
– | – | – | – | – | CC(C)NCC(O)COc1ccc(CC(N)=O)cc1 (stereo not drawn) [Atenolol] | 50 | 20 | Base | maintain similar intensities all the way from the villus tip to the basal regions | localized primarily between the villi | – | –
about 3 fold | 200 | – | – | – | COCCc1ccc(OCC(O)CNC(C)C)cc1 (stereo not drawn) [Metoprolol] | – | – | – | – | – | 27.0 1E-6.cm/s | < 20
– | – | about 3 fold | about 3 fold | 400–500 µm | CC(C)NCC(O)COc1cccc2ccccc12 (stereo not drawn) [Propranolol] | – | 30 | Base | – | – | 41.9 1E-6.cm/s | –
